Laboratory results taken from patent publication US20070208087A1, “Compounds, compositions and methods for the treatment of inflammatory diseases” (priority 2001, published 2007).
Where “and” joins values, the source holds several entries; their conditions need not be identical. Identical values can stand only once. Like-named read-outs stand apart in the source and are kept apart here.

Experiments:
Format in all cases: cell-based
[1] = test system: EOC 13.31 microglia cells; test: NO release inhibition in LPS/IFNγ stimulated microglia, concurrent treatment, Griess reaction at 24 hours (Example 6); conditions: for NO release, Avg / inhibition at 50 µM: 24 hours; for inhibition at 50 µM: Microglia
Experimental: The purpose of this experiment was to screen compounds 3, 4, 21, 26, 51, 52, 66, and 78 for their ability to inhibit Nitric oxide release from microglia. […] EOC 13.31 microglia cells were plated into 96 well plates for 24 hours. Confluent cells were treated with 50 μM of the bis- and tris-dihydroxyaryl compounds either with or without stimulation at 1 pg/ml LPS, and 1 ng/ml IFNγ. NO release was measured at 24 hours using the Griess reaction which is a spectrophotometric measure of NO release (reagents from Promega).

[2] = test system: microglia; test: Ranking of NO release inhibition (Example 12); conditions: Microglia, ranking table
Text: The bis- and tris-dihydroxyaryl compounds were ranked in order of effectiveness for the inhibition of NO release as set out in Table 8.

[3] = test system: Microglial cells; test: Dose response inhibition of NO release from microglia, 0.75-200 μM (Example 8)
Experimental: This experiment was designed to determine dose response inhibition of NO release from microglia by bis- and tris-dihydroxyaryl compounds when stimulated with LPS/IFNγ. […] This experiment is designed to determine a dose response for various bis- and tris-dihydroxyaryl compounds. Microglial cells were plated into 96 well plates at 1×10^5 cells/ml. […] The doses tested were: 0.75 μM, 1.56 μM, 3.125 μM, 6.25 μM, 12.5 μM, 25 μM, 50 μM, 100 μM and 200 μM. Nitric oxide release was measured after 48 hours using the Griess reaction.

[4] = test system: EOC 13.31 microglia cells; test: Inhibition of NO release from microglia following 24 hours pretreatment (Example 10); conditions: for inhibition at 50 µM: Microglia
In short: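 Confluent EOC 13.31 cells pretreated 24 hours with 50 μM compound (from 10 mM DMSO stock), then stimulated with 10 μg/ml LPS plus 10 ng/ml IFNγ without media change. After a further 48 hours, NO release was measured by Griess Reaction.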

[5] = dose 0.75 μM, 48 hours, single replicates
[6] = dose 1.56 μM, 48 hours, single replicates
[7] = dose 3.125 μM, 48 hours, single replicates
[8] = dose 6.25 μM, 48 hours, single replicates
[9] = dose 12.5 μM, 48 hours, single replicates
[10] = dose 25 μM, 48 hours, single replicates
[11] = dose 50 μM, 48 hours, single replicates
[12] = dose 100 μM, 48 hours, single replicates
[13] = dose 200 μM, 48 hours, single replicates

Oc1ccc(CCc2ccc(O)c(O)c2)cc1O [Compound 4, 1,2-bis(3,4-dihydroxyphenyl)ethane]
inhibition of NO release, in words ([1]; 50 μM, LPS/IFNγ stimulated microglial cells): very effective inhibitors of NO release | NO release, Avg ([1]; Compound + LPS/IFNγ, 50 μM): 1.0417 µM | NO release, Avg ([1]; Compound Only (without LPS/IFNγ), 50 μM): 0.8660 µM | inhibition at 50 µM ([1]; Compound + LPS/IFNγ, read-out: % inhibition of NO release): 94.4% | inhibition at 50 µM ([1]; Table 2 summary, LPS/IFNγ, read-out: % Inhibition (summary of inhibition of NO release)): 94.4% | inhibition at 50 µM [2]: 94% | inhibition at 0.75 µM ([3]; Microglia, 48 h, dose 0.75 μM): -11.1% | inhibition at 1.56 µM ([3]; Microglia, 48 h, dose 1.56 μM): 2.52% | inhibition at 3.125 µM ([3]; Microglia, 48 h, dose 3.125 μM): 6.14% | inhibition at 6.25 µM ([3]; Microglia, 48 h, dose 6.25 μM, 48 hours, read-out: Avg % Inhibition): 36.2% | inhibition at 6.25 µM ([3]; Microglia, 48 h, dose 6.25 μM, 48 hours, single replicates, read-out: % inhibition): 42.2% | inhibition at 12.5 µM ([3]; Microglia, 48 h, dose 12.5 μM, 48 hours, read-out: Avg % Inhibition): 82.7% | inhibition at 12.5 µM ([3]; Microglia, 48 h, dose 12.5 μM, 48 hours, single replicates, read-out: % inhibition): 85.1% | inhibition at 25 µM ([3]; Microglia, 48 h, dose 25 μM, 48 hours, read-out: Avg % Inhibition): 86.2% | inhibition at 25 µM ([3]; Microglia, 48 h, dose 25 μM, 48 hours, single replicates, read-out: % inhibition): 85.6% | inhibition at 50 µM ([3]; Microglia, 48 h, dose 50 μM, 48 hours, read-out: Avg % Inhibition): 86.5% | inhibition at 50 µM ([3]; Microglia, 48 h, dose 50 μM, 48 hours, single replicates, read-out: % inhibition): 87.2% | inhibition at 100 µM ([3]; Microglia, 48 h, dose 100 μM, 48 hours, read-out: Avg % Inhibition): 82.2% | inhibition at 100 µM ([3]; Microglia, 48 h, dose 100 μM, 48 hours, single replicates, read-out: % inhibition): 83% | inhibition at 200 µM ([3]; Microglia, 48 h, dose 200 μM, 48 hours, read-out: Avg % Inhibition): 75% | inhibition at 200 µM ([3]; Microglia, 48 h, dose 200 μM, 48 hours, single replicates, read-out: % inhibition): 77.4% | μM NO release Avg ([3]; dose 0.75 μM, 48 hours): 27.011 µM | % inhibition [3, 5]: −8.45% and −9.87% and −14.83% | OD values (printed under head μM NO release) [3, 5]: 0.229 and 0.22 and 0.222 | μM NO release [3, 5]: 27.931 µM and 26.379 µM and 26.724 µM | μM NO release Avg ([3]; dose 1.56 μM, 48 hours): 23.709 µM | % inhibition [3, 6]: 6.85% and 4.93% and −4.20% | OD values (printed under head μM NO release) [3, 6]: 0.214 and 0.197 and 0.2 | μM NO release [3, 6]: 25.345 µM and 22.656 µM and 23.125 µM | μM NO release Avg ([3]; dose 3.125 μM, 48 hours): 22.829 µM | % inhibition [3, 7]: 12.63% and 10.71% and −4.91% | OD values (printed under head μM NO release) [3, 7]: 0.215 and 0.188 and 0.191 | μM NO release [3, 7]: 25.517 µM and 21.250 µM and 21.719 µM | μM NO release Avg ([3]; dose 6.25 μM, 48 hours): 15.521 µM | % inhibition [3, 8]: 40.26% and 26.12% | OD values (printed under head μM NO release) [3, 8]: 0.167 and 0.142 and 0.145 | μM NO release [3, 8]: 17.969 µM and 14.063 µM and 14.531 µM | μM NO release Avg ([3]; dose 12.5 μM, 48 hours): 4.21 µM | % inhibition [3, 9]: 84.07% and 78.93% | OD values (printed under head μM NO release) [3, 9]: 0.083 and 0.071 and 0.073 | μM NO release [3, 9]: 5.125 µM and 3.625 µM and 3.875 µM | μM NO release Avg ([3]; dose 25 μM, 48 hours): 3.357 µM | % inhibition [3, 10]: 87.89% | OD values (printed under head μM NO release) [3, 10]: 0.071 and 0.07 and 0.064 | μM NO release [3, 10]: 3.625 µM and 3.500 µM and 2.947 µM | μM NO release Avg ([3]; dose 50 μM, 48 hours): 3.292 µM | OD values (printed under head μM NO release) [3, 11]: 0.071 and 0.067 (2×) | μM NO release [3, 11]: 3.625 μM and 3.125 μM (2×) | μM NO release Avg ([3]; dose 100 μM, 48 hours): 4.333 µM | % inhibition [3, 12]: 82.01% and 81.50% | OD values (printed under head μM NO release) [3, 12]: 0.078 and 0.075 and 0.077 | μM NO release [3, 12]: 4.500 µM and 4.125 µM and 4.375 µM | Avg % Inhibition ([3]; dose 200 μM, 48 hours): 75.332% | μM NO release Avg ([3]; dose 200 μM, 48 hours): 6.000 µM | % inhibition [3, 13]: 74.30% | OD values (printed under head μM NO release) [3, 13]: 0.092 (2×) and 0.086 | μM NO release [3, 13]: 6.250 μM (2×) and 5.500 μM | inhibition of NO release, in words ([3]; dose response 0.75-200 μM): effective inhibitors of NO release | μM NO release ([4]; 50 uM pretreatment 24 hours, then LPS/IFNγ 48 hours, single replicates): 0.000 µM | inhibition at 50 µM ([4]; 50 uM pretreatment 24 hours, then LPS/IFNγ 48 hours, read-out: Avg % Inhibition): 100% | inhibition at 50 µM ([4]; 50 uM pretreatment 24 hours, then LPS/IFNγ 48 hours, single replicates, read-out: % inhibition): 100% | inhibition at 50 µM ([4]; 50 μM pretreatment, read-out: inhibition of NO release following pretreatment): > 75%
